What was measured:
Assay type in all cases: in vivo
[1] = tested on: barnyardgrass (Echinochloa crus-galli L.): ECHCG; test: Test Example 1 pre-emergence herbicidal activity, ECHCG; settings: Rate 63 g a.i./ha, visually observed 20th to 23rd day after application
In short: (§1)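 Visual scoring 20–23 days after treatment gives percent growth control, where 0 equals untreated and 100 means complete kill. Treatment: pre-emergence spray of formulated compound in 500 L/ha water, one day after sowing in upland soil.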

[2] = tested on: crabgrass (Digitaria sanguinalis L.): DIGSA; test: Test Example 1 pre-emergence herbicidal activity, DIGSA; settings: Rate 63 g a.i./ha, visually observed 20th to 23rd day after application
In short: as §1

[3] = tested on: green foxtail (Setaria viridis L.): SETVI; test: Test Example 1 pre-emergence herbicidal activity, SETVI; settings: Rate 63 g a.i./ha, visually observed 20th to 23rd day after application
In short: as §1

[4] = tested on: redroot pigweed (Amaranthus retroflexus L.): AMARE; test: Test Example 1 pre-emergence herbicidal activity, AMARE; settings: Rate 63 g a.i./ha, visually observed 20th to 23rd day after application
In short: as §1

[5] = tested on: prickly sida (Sida spinosa L.): SEDSP; test: Test Example 1 pre-emergence herbicidal activity, SIDSP; settings: Rate 63 g a.i./ha, visually observed 20th to 23rd day after application
In short: as §1

[6] = tested on: velvetleaf (Abutilon theophrasti): ABUTH; test: Test Example 1 pre-emergence herbicidal activity, ABUTH; settings: Rate 63 g a.i./ha, visually observed 20th to 23rd day after application
In short: as §1

[7] = tested on: rice (Oryza sativa L.): ORYSA; test: Test Example 1 pre-emergence herbicidal activity, ORYSA; settings: Rate 63 g a.i./ha, visually observed 20th to 23rd day after application
In short: as §1

[8] = tested on: wheat (Triticum aestivum L.): TRZAX; test: Test Example 1 pre-emergence herbicidal activity, TRZAX; settings: Rate 63 g a.i./ha, visually observed 20th to 23rd day after application
In short: as §1

[9] = tested on: corn (Zea mays L.): ZEAMX; test: Test Example 1 pre-emergence herbicidal activity, ZEAMX; settings: Rate 63 g a.i./ha, visually observed 20th to 23rd day after application
In short: as §1

[10] = tested on: soybean (Glycine max Merr.): GLXMA; test: Test Example 1 pre-emergence herbicidal activity, GLXMA; settings: Rate 63 g a.i./ha, visually observed 20th to 23rd day after application
In short: as §1

[11] = tested on: barnyardgrass (Echinochloa crus-galli L.), ECHCG; test: Test Example 2 post-emergence (foliage treatment) herbicidal activity, ECHCG; settings: 63 g a.i./ha
In short: (§2)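 Foliar spray of formulated compound (500 L/ha dilution water, 0.1% v/v spreader) onto young potted plants at defined leaf stages. Scored 0-100% by visual inspection 20-23 d post-spray.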

[12] = tested on: crabgrass (Digitaria sanguinalis L.), DIGSA; test: Test Example 2 post-emergence (foliage treatment) herbicidal activity, DIGSA; settings: 63 g a.i./ha
In short: as §2

[13] = tested on: green foxtail (Setaria viridis L.), SETVI; test: Test Example 2 post-emergence (foliage treatment) herbicidal activity, SETVI; settings: 63 g a.i./ha
In short: (§3)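 Each species was evaluated for growth suppression by eye, 0% matching untreated and 100% meaning death, some 20 to 23 days after a single post-emergence foliar treatment applied in 500 L/ha of water carrying 0.1% (v/v) agricultural spreader.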

[14] = tested on: redroot pigweed (Amaranthus retroflexus L.), AMARE; test: Test Example 2 post-emergence (foliage treatment) herbicidal activity, AMARE; settings: 63 g a.i./ha
In short: as §2

[15] = tested on: prickly sida (Sida spinosa L.), SIDSP; test: Test Example 2 post-emergence (foliage treatment) herbicidal activity, SIDSP; settings: 63 g a.i./ha
In short: as §3

[16] = tested on: velvetleaf (Abutilon theophrasti), ABUTH; test: Test Example 2 post-emergence (foliage treatment) herbicidal activity, ABUTH; settings: 63 g a.i./ha
In short: as §3

[17] = tested on: rice (Oryza sativa L.), ORYSA; test: Test Example 2 post-emergence (foliage treatment) herbicidal activity, ORYSA; settings: 63 g a.i./ha
In short: as §2

[18] = tested on: wheat (Triticum aestivum L.), TRZAX; test: Test Example 2 post-emergence (foliage treatment) herbicidal activity, TRZAX; settings: 63 g a.i./ha
In short: as §3

[19] = tested on: corn (Zea mays L.), ZEAMX; test: Test Example 2 post-emergence (foliage treatment) herbicidal activity, ZEAMX; settings: 63 g a.i./ha
In short: as §3

[20] = tested on: soybean (Glycine max Merr.), GLXMA; test: Test Example 2 post-emergence (foliage treatment) herbicidal activity, GLXMA; settings: 63 g a.i./ha
In short: as §3

[21] = tested on: barnyardgrass (Echinochiloa oryzicola: ECHOR); test: Test Example 3 water application herbicidal activity (paddy), ECHOR; settings: 63 g a.i./ha, water application under submerged condition at 0.5 leaf stage, visually observed 14th day after application; 0 = untreated control, 100 = complete kill
In short: (§4)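 Compound, as diluted wettable powder or emulsifiable concentrate, was pipetted into flood water at a set active-ingredient dose. Weeds were treated at 0.5-leaf stage after sowing or tuber planting; 2-leaf rice 4 days post-transplant. Control scored visually, 0 untreated to 100 complete kill, weeds day 14, rice day 21.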

[22] = tested on: japanese bulrush (Scirpus juncoides: SCPJO); test: Test Example 3 water application herbicidal activity (paddy), SCPJO; settings: 63 g a.i./ha, water application under submerged condition at 0.5 leaf stage, visually observed 14th day after application; 0 = untreated control, 100 = complete kill
In short: as §4

[23] = tested on: japanese ribbon wapato (Sagittaria pygmaea: SA GPY); test: Test Example 3 water application herbicidal activity (paddy), SAGPY; settings: 63 g a.i./ha, water application under submerged condition, tubers planted, visually observed 14th day after application; 0 = untreated control, 100 = complete kill
In short: as §4

[24] = tested on: rice (Oryza sativa L.: ORYSA); test: Test Example 3 water application herbicidal activity (paddy), transplanted rice ORYSA; settings: 63 g a.i./ha, water application 4th day after transplantation of 2 leaf stage rice, visually observed 21st day after application; 0 = untreated control, 100 = complete kill
In short: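 Rice at 2-leaf stage is transplanted into flooded puddled soil and treated by water application 4 days later, at a predetermined active-ingredient dose. Crop injury is rated visually as growth control (0–100%) 21 days after treatment.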

SMILES | Pre-emergence Herbicidal Activity ECHCG (growth controlling degree) [1] [%] | Pre-emergence Herbicidal Activity DIGSP (growth controlling degree) [2] [%] | Pre-emergence Herbicidal Activity SETVI (growth controlling degree) [3] [%] | Pre-emergence Herbicidal Activity AMARE (growth controlling degree) [4] [%] | Pre-emergence Herbicidal Activity SIDSP (growth controlling degree) [5] [%] | Pre-emergence Herbicidal Activity ABUTH (growth controlling degree) [6] [%] | Pre-emergence Herbicidal Activity ORYSA (growth controlling degree) [7] [%] | Pre-emergence Herbicidal Activity TRZAX (growth controlling degree) [8] [%] | Pre-emergence Herbicidal Activity ZEAMX (growth controlling degree) [9] [%] | Pre-emergence Herbicidal Activity GLXMA (growth controlling degree) [10] [%] | growth controlling degree, ECHCO [11] [%] | growth controlling degree, DIGSP [12] [%] | growth controlling degree, SETVI [13] [%] | growth controlling degree, AMARE [14] [%] | growth controlling degree, SIDSP [15] [%] | growth controlling degree, ABUTH [16] [%] | growth controlling degree, ORYSA [17] [%] | growth controlling degree, TRZAX [18] [%] | growth controlling degree, ZEAMX [19] [%] | growth controlling degree, GLXMA [20] [%] | also measured
COc1ccc(OC(=O)Nc2c(OC)c(Cl)cc(F)c2-c2nn(C)c(OC(F)F)c2Cl)cc1 [Compound 1-57] | 70 | 80 | 95 | 100 | 70 | 60 | 20 | 30 | 0 | 0 | 100 | 100 | 100 | 100 | 100 | 100 | 95 | 40 | 90 | 90 | growth controlling degrees (%) ECHOR [21]: 100%; growth controlling degrees (%) SCPJO [22]: 100%; growth controlling degrees (%) SAGPY [23]: 100%; growth controlling degrees (%) ORYSA [24]: 50%
COc1c(Cl)cc(F)c(-c2nn(C)c(OC(F)F)c2Cl)c1NC(=O)c1cccc(Cl)c1 [Compound 1-26] | 70 | 98 | 100 | 100 | 70 | 100 | 30 | 10 | 10 | 10 | 95 | 60 | 100 | 100 | 100 | 100 | 80 | 30 | 40 | 70 | growth controlling degrees (%) ECHOR [21]: 100%; growth controlling degrees (%) SCPJO [22]: 70%; growth controlling degrees (%) SAGPY [23]: 100%; growth controlling degrees (%) ORYSA [24]: 60%
Cn1nc(-c2c(F)cc(Cl)c(OC(F)F)c2NCc2ccccc2)c(Cl)c1OC(F)F [Compound 1-88] | 50 | 98 | 70 | 100 | 80 | 70 | 10 | 0 | 0 | 40 | 100 | 98 | 100 | 100 | 100 | 100 | 30 | 30 | 60 | 60 | growth controlling degrees (%) ECHOR [21]: 100%; growth controlling degrees (%) SCPJO [22]: 80%; growth controlling degrees (%) SAGPY [23]: 60%; growth controlling degrees (%) ORYSA [24]: 20%
COc1c(Cl)cc(F)c(-c2nn(C)c(OC(F)F)c2Cl)c1NC(=O)COc1ccccc1 [Compound 1-15] | 70 | 100 | 100 | 100 | 60 | 60 | 40 | 30 | 10 | 30 | 90 | 70 | 100 | 100 | 100 | 100 | 80 | 50 | 50 | 50 | growth controlling degrees (%) ECHOR [21]: 100%; growth controlling degrees (%) SCPJO [22]: 90%; growth controlling degrees (%) SAGPY [23]: 98%; growth controlling degrees (%) ORYSA [24]: 50%
Cn1nc(-c2c(F)cc(Cl)c(OC(F)F)c2NC(=O)C(F)(F)F)c(Cl)c1OC(F)F [Compound 1-83] | 90 | 100 | 100 | 100 | 100 | 80 | 60 | 10 | 20 | 60 | 100 | 100 | 100 | 100 | 100 | 100 | 50 | 10 | 80 | 60 | growth controlling degrees (%) ECHOR [21]: 100%; growth controlling degrees (%) SCPJO [22]: 95%; growth controlling degrees (%) SAGPY [23]: 80%; growth controlling degrees (%) ORYSA [24]: 50%
